Patent publication US7285558B2, “Pyrazolo[3,4-d]pyrimidines inhibiting H. pylori infections” (AstraZeneca AB, priority 2001, dated 2007)
Where a name gives a salt, the structure may show the parent alone.

Legend:
H. pylori MurI = biological target: T1, H. pylori MurI (Helicobacter pylori, UniProt Q9ZLT0); assay: Glutamate racemase (MurI) activity assay, coupled to L-glutamate dehydrogenase (LGDH), fluorescence readout; format: biochemical; settings: 1000 nM H. pylori MurI, 40 μM D-glutamate, room temperature, read-out: LGDH I50
T1 sequence (Q9ZLT0 1-255): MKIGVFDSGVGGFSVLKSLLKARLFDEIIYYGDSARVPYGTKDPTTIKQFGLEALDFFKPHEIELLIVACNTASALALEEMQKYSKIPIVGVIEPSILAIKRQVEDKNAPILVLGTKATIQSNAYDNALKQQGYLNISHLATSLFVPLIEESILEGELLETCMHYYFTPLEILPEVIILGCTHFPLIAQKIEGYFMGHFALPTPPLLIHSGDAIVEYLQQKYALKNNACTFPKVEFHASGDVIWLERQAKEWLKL
Experimental: Glutamate Racemase Activity Assay:
Glutamate racemase (MurI) activity was assayed by measuring the conversion of glutamate from D to L enantiomer. This reaction was coupled to the reduction of NAD^+ to NADH by L-glutamate dehydrogenase (LGDH). LGDH from bovine liver was obtained as a lyophilized powder (Sigma #G-7882) and dissolved in 10 mM Tris (Sigma #T-6791), pH 7.5, buffer containing 0.1 mM EDTA (Fisher #BP118-500) and 50% glycerol (Sigma #G-9012). The assay mixture consisted of 100 mM Tris-HCl, pH 8.0, 10 mM β-NAD (Sigma #N-7004), 5 mM DTT (Sigma #D-5545), 0.03% PEG (mw 8000, Sigma #P-5413), 0.03 mg/mL BSA (Pierce #23210), 15 U/mL LGDH, D-glutamate (Fluka #49460), and purified MurI. The following MurI concentrations were used: 1000 nM H. pylori MurI, 0.7 nM E. faecalis MurI, or 0.4 nM E. coli MurI. In the case of E. coli MurI 14 μM UDP-MurNAc-Ala was also added. The final concentration of D-glutamate added for H. pylori MurI was 40 μM, and the other orthologs used 1 mM D-glutamate. The assay was performed in 96-well black microtiter plates (Greiner #XN2-9511) with a final assay volume of 100 μL. Compounds were prepared (x) […]
[…] as 20 mM stock solutions in dimethyl sulphoxide (DMSO, Sigma #D-5879) and serial dilutions were prepared from these solutions using DMSO, 2 μL of which were added to the wells. Activity at room temperature was measured by monitoring the increase in fluorescence using a TECAN Ultra platereader with 340 nm excitation and 465 nm emission filters. The compounds provided have measured IC50 of less then 400 μM

Row | melting point | IC50 (H. pylori MurI) | Structure (SMILES)
1 | 75 to 77 °C | – | CCC(C#N)n1c(=O)n(C)c(=O)c2c(-c3ccncc3)n(Cc3cccc4ccccc34)nc21 (racemic) (as salt: trifluoroacetate) [Example 130, ±2-[5-methyl-2-(1-naphthylmethyl)-4,6-dioxo-3-(4-pyridinyl-2,4,5,6-tetrahydro-7H-pyrazolo[3,4-d]pyrimidin-7-yl]butanenitrile]
2 | 107 to 109 °C | 26 µM | Cn1c(=O)c2c(-c3ccncc3)n(Cc3cccc4ccccc34)nc2n(C[S+](C)[O-])c1=O (racemic) [Example 127, (±)5-methyl-7-[(methylsulfinyl)methyl]-2-(1-naphthylmethyl)-3-pyridin-4-yl-2H-pyrazolo[3,4-d]pyrimidine-4,6(5H,7H)-dione]
3 | – | 9.1 µM | CCC(C#N)n1c(=O)n(C)c(=O)c2c(-c3ccncc3)n(Cc3cccc4ccccc34)nc21 (racemic) [Example 130, ±2-[5-methyl-2-(1-naphthylmethyl)-4,6-dioxo-3-(4-pyridinyl-2,4,5,6-tetrahydro-7H-pyrazolo[3,4-d]pyrimidin-7-yl]butanenitrile]
4 | – | 18 µM | Cn1c(=O)c2c(-c3ccncc3)n(Cc3cccc4ccccc34)nc2n(CS(=O)(=O)C(F)(F)F)c1=O [Example 126, 5-methyl-2-(1-naphthylmethyl)-3-(4-pyridinyl)-7-{[(trifluoromethyl)sulfonyl]methyl}-2H-pyrazolo[3,4-d]pyrimidine-4,6(5H,7H)-dione]
5 | 130 to 135 °C | – | Cn1c(=O)c2c(-c3ccncc3)n(Cc3cccc4ccccc34)nc2n(C[S+]([O-])c2ccccc2)c1=O (stereo not shown) [Example 128, 5-methyl-2-(1-naphthylmethyl)-7-[(phenylsulfinyl)methyl]-3-pyridin-4-yl-2H-pyrazolo[3,4-d]pyrimidine-4,6(5H,7H)-dione]
6 | 251 to 254 °C | 1.6 µM | CC(C)Cn1c(=O)n(C)c(=O)c2c(-c3cccc(-c4nnn[nH]4)c3)n(Cc3cccc4ccccc34)nc21 [Example 129, 7-isobutyl-5-methyl-2-(1-naphthylmethyl)-3-[3-(1H-1,2,3,4-tetraazol-5-yl)phenyl]-2H-pyrazolo[3,4-d]pyrimidine-4,6(5H,7H)-dione]
7 | 55 to 57 °C | – | CC(C)Cn1c(=O)n(C)c(=O)c2c(-c3ccccc3F)n(Cc3csc4ccccc34)nc21 [Example 131, 2-(1-benzothiophen-3-ylmethyl)-3-(2-fluorophenyl)-7-isobutyl-5-methyl-2H-pyrazolo[3,4-d]pyrimidine-4,6(5H,7H)-dione]

Row | Structure (SMILES) | melting point | IC50 (H. pylori MurI)
8 | Cn1c(=O)c2c(-c3ccncc3)n(Cc3cccc4ccccc34)nc2n(C[S+]([O-])C(F)(F)F)c1=O (racemic) [Example 125, (±)5-methyl-2-(1-naphthylmethyl)-3-(4-pyridinyl)-7-{[(trifluoromethyl)sulfinyl]methyl}-2H-pyrazolo[3,4-d]pyrimidine-4,6(5H,7H)-dione,7H)-dione] | – | 45.7 µM
